One series concerns LDL-r promoter. As to the kind of experiment: LDL-r promoter luciferase reporter gene assay in stably transfected HepG2 cells. The conditions noted are these: read-out: In vitro (IC50). Format: cell-based, human. For orientation: A reporter such as luciferase makes a cellular process visible.
Another series deals with fat-fed hamsters. The experiment in a line: Oral administration to fat-fed hamsters, reduction in VLDL/LDL cholesterol and TG plasmatic levels. Format: in vivo, hamster. The conditions noted are these: for ED50: Mesocricetus auratus, 72 h, fat-fed hamsters, oral, once a day for 3 days, reductions in VLDL/LDL cholesterol and TG plasmatic levels, read-out: In vivo (ED50). How it is done: The in vivo profile of the compounds is evaluated by oral administration of the compounds of the invention to fat-fed hamsters. Measurements of VLDL/LDL cholesterol and triglycerides upon treatment allow to determine the activity.
Compounds were prepared for oral administration by milling with 0.5% hydroxypropylmethylcellulose and 5% Tween 80. Hamsters were fed for 2 weeks with a diet containing 0.2% of cholesterol and 10% of coconut oil. Then compounds were administrated once a day for 3 days, from 20 to 0.2 mg/kg. Plasma lipid levels including total cholesterol, VLDL/LDL cholesterol, VLDL/LDL triglycerides and HDL-cholesterol were determinated after ultracentrifugation (density 1.063 g/ml to separate VLDL/LDL fraction and HDL fraction) using the Biomerieux erizymatic kit. Reductions in VLDL/LDL cholesterol and TG plasmatic levels were calculated taking solvant treated animals as control and ED50 of each compound was determined.

Where two headings read alike, the source gives them in different places.

One may read the melting point as the temperature of the solid-liquid transition. As to `Cc1ccc(C2CCN(CCCCNC(=O)c3ccc(-c4ccc(C#N)cc4)cc3)CC2)c(OP(=O)(O)O)c1`, the melting point was found to be 70 °C.

`CCOP(=O)(OCC)Oc1cc(CC)ccc1C1CCN(CCCCNC(=O)c2ccc(NC(=O)c3ccc(Cl)cc3)cc2)CC1` gave a melting point of 158 to 160 °C.

What is called IC50 is the point on the concentration scale where inhibition reaches its midpoint. `Cc1ccc(C2CCN(CCCCNC(=O)c3ccc(NC(=O)c4ccc(Cl)cc4)cc3)CC2)c(O)c1.Cl` [Example 1, 4-(4-chloro-benzoylamino)-N-{4-[4-(5-methyl-2-piperidinyl-phenol)]-butyl}-benzamide Hydrochloride]: the IC50 in the series on LDL-r promoter amounted to 30 nM. In addition, the “In vivo (ED50)” value in the series with fat-fed hamsters (hamster, in vivo, po) was in the range of 10 to 15 mg/kg.

Broadly, the ED50 is the midpoint of the dose-response relation. In the case of `CC(=O)Oc1cc(C)ccc1C1CCN(CCCCNC(=O)c2ccc(NC(=O)c3ccc(Cl)cc3)cc2)CC1` [Example 2, Acetic Acid 2-(1-{4-[4-(4-chloro-benzoylamino)-benzoylamino]-butyl}-piperidin-4-yl)-5-methyl-phenyl Ester], the melting point is 210 °C. In the series with fat-fed hamsters, the ED50 came out at 5 mg/kg.

Regarding `CCOP(=O)(OCC)Oc1cc(C)ccc1C1CCN(CCCCNC(=O)c2ccc(NC(=O)c3ccc(Cl)cc3)cc2)CC1` [Example 3, Phosphoric Acid 2-(1-{4-[4-(4-chloro-benzoylamino)-benzoylamino]-butyl}-piperidin-4-yl)-5-methyl-phenyl Ester Diethyl Ester], the melting point worked out at 230 °C. Besides, in the series on LDL-r promoter (Homo sapiens, HepG2 cells with LDL-r promoter-luciferase construct, 24 hours incubation, induction of luciferase activity), the half-maximal inhibitory concentration (IC50) worked out at 30 nM. Besides, the ED50 in the series with fat-fed hamsters was 5 mg/kg.

`CCc1ccc(C2CCN(CCCCNC(=O)c3ccc(NC(=O)c4ccc(Cl)cc4)cc3)CC2)c(OC(C)=O)c1` [Example 5, Acetic Acid 2-(1-{4-[4-(4-chloro-benzoylamino)-benzoylamino]-butyl}-piperidin-4-yl)-5-ethyl-phenyl Ester] showed a melting point of 192 to 194 °C.

With `CCc1ccc(C2CCN(CCCCNC(=O)c3ccc(-c4ccc(C#N)cc4)cc3)CC2)c(O)c1` [Example 6, 4′-Cyano-biphenyl-4-carboxylic Acid {4-[4-(2-hydroxy-4-ethyl-phenyl)-piperidin-1-yl]-butyl}-amide], the melting point was found to be 252 °C.

In the case of `Cc1ccc(C2CCN(CCCCNC(=O)c3ccc(-c4ccc(C#N)cc4)cc3)CC2)c(O)c1` [Example 20, 4′-Cyano-biphenyl-4-carboxylic Acid {4-[4-(2-hydroxy-4-methyl-phenyl)-piperidin-1-yl]-butyl}-amide], the melting point worked out at 184 °C.

Compound `CC(=O)Oc1cc(C)ccc1C1CCN(CCCCNC(=O)c2ccc(-c3ccc(C#N)cc3)cc2)CC1` [Example 21, Acetic Acid 2-(1-{4-[(4′-cyano-biphenyl-4-carbonyl)-amino]-butyl}-piperidin-4-yl)-5-methyl-phenyl Ester] yielded a melting point of 128 to 130 °C.

The values are drawn from patent US20040072865A1, “Aryl piperidine derivatives as inducers of ldl-receptor expression” (priority 2003, published 2004).
